pIC50: −log10 of the molar value. Active and inactive are the calls of the source. No cut-off for these calls is given here.
Legend:
[1] = Acute toxicity in ICR mouse assessed as pathological changes of heart at 1500 mg/kg, po administered as single dose measured after 7 days by H and E staining based assay; type: organism-based; conditions: in vivo, time 7 day
[2] = biological target: T1, Dipeptidyl peptidase 1 (Homo sapiens, UniProt P53634); test: Binding affinity to Cathepsin C in human U-937 cells assessed as increase in thermal stability at 10 uM measured from 46 to 52 degC after 4 hrs by cellular thermal shift assay; type: cell-based
[3] = Acute toxicity in ICR mouse assessed as animal behavioural changes at 1500 mg/kg, po administered as single dose and measured for 7 days; type: organism-based; conditions: in vivo, time 7 day
[4] = test system: Mus musculus; test: In vivo inhibition of cathepsin C in po dosed LPS-induced ALI C57BL/6 mouse model assessed as downregulation of PR3 activity in blood treated 1 hr prior to LPS challenge and measured after 48 hrs; type: functional, organism-based; conditions: dose 2-50 mg/kg, time 49.0 hrs, DDE = dose-dependent effect
[5] = AUC(last) in Sprague-Dawley rat at 10 mg/kg, po measured after 24 hrs by LC-MS/MS analysis; type: ADME, organism-based; design: dose 10 mg/kg, time 24 hrs, route po; conditions: in vivo
[6] = biological target: T1, Dipeptidyl peptidase 1; test: Inhibition of human recombinant Cathepsin C using H-Gly-Arg-AMC as substrate pretreated for 30 mins followed by substrate addition and incubated for 60 mins by microplate reader assay
[7] = test system: Mus musculus; test: Anti-inflammatory activity against po dosed LPS-induced ALI C57BL/6 mouse model assessed as decrease in IL-6 level in lungs treated 1 hr prior to LPS challenge and measured after 48 hrs by ELISA; type: functional, organism-based; conditions: dose 2-50 mg/kg, time 49.0 hrs, DDE = dose-dependent effect
[8] = test system: Mus musculus; test: Anti-inflammatory activity against LPS-induced ALI C57BL/6 mouse model assessed as decrease in pulmonary edema by measuring decrease in lung wet/dry ratio at 2 to 50 mg/kg, po treated 1 hr prior to LPS challenge and measured after 48 hrs; type: functional, organism-based; conditions: dose 2-50 mg/kg, time 49.0 hrs
[9] = Tmax in Sprague-Dawley rat at 10 mg/kg, po measured after 24 hrs by LC-MS/MS analysis; type: ADME, organism-based; conditions: in vivo
[10] = biological target: T2, Dipeptidyl peptidase 1 (Mus musculus) (UniProt P97821); test: Inhibition of Cathepsin C in C57BL/6 mouse Bone marrow cells assessed as reduction of NSPs stability by measuring stability of protease 3 at 1 uM treated for 12 hrs by Western blotting analysis; type: cell-based; design: scale not given: the % may be the effect or the level left; conditions: Bone marrow cell
T2 sequence (whole entry): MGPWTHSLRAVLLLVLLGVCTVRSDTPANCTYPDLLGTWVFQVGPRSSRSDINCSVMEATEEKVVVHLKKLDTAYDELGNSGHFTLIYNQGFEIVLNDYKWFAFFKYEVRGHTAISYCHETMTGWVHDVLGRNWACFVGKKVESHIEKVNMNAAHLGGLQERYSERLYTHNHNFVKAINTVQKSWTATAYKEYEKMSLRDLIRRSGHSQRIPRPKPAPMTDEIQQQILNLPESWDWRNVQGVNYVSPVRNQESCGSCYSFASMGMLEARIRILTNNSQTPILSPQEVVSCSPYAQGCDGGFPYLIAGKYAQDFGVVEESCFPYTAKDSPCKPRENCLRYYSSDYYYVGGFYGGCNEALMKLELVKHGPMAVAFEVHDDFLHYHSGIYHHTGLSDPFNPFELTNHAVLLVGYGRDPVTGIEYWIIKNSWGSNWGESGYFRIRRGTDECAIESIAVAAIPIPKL

[11] = Acute toxicity in ICR mouse assessed as pathological changes of spleen at 1500 mg/kg, po administered as single dose measured after 7 days by H and E staining based assay; type: organism-based; conditions: in vivo, time 7 day
[12] = biological target: T1, Dipeptidyl peptidase 1; test: Inhibition of Cathepsin C in human THP-1 cells using H-Gly-Phe-AFC as substrate pretreated for 1 hr followed by substrate addition and incubated for 60 mins by microplate reader assay; type: cell-based
[13] = test system: Mus musculus; test: Anti-inflammatory activity against LPS-induced ALI C57BL/6 mouse model assessed as increase in animal survival rate at 2 to 50 mg/kg, po treated 1 hr prior to LPS challenge and measured after 48 hrs; type: functional, organism-based; conditions: dose 2-50 mg/kg, time 49.0 hrs
[14] = Acute toxicity in ICR mouse assessed as mortality at 1500 mg/kg, po administered as single dose and measured for 7 days; type: organism-based; conditions: in vivo, time 7 day
[15] = biological target: T2, Dipeptidyl peptidase 1 (Mus musculus); test: Inhibition of Cathepsin C in C57BL/6 mouse Bone marrow cells assessed as reduction of NSPs stability by measuring stability of cathepsin G at 1 uM treated for 48 hrs by Western blotting analysis; type: cell-based; design: scale not given: the % may be the effect or the level left; conditions: Bone marrow cell
[16] = Half life in Sprague-Dawley rat at 2 mg/kg, iv measured for 24 hrs by LC-MS/MS analysis; type: ADME, organism-based; conditions: in vivo
[17] = AUC(0 to infinity) in Sprague-Dawley rat at 10 mg/kg, po by LC-MS/MS analysis; type: ADME, organism-based; design: time infinity, dose 10 mg/kg, route po; conditions: in vivo
[18] = test system: Mus musculus; test: In vivo inhibition of cathepsin C in blood of po dosed LPS-induced ALI C57BL/6 mouse model treated 1 hr prior to LPS challenge and measured after 48 hrs; type: functional, organism-based; conditions: dose 2-50 mg/kg, time 49.0 hrs, DDE = dose-dependent effect
[19] = biological target: T2, Dipeptidyl peptidase 1 (Mus musculus); test: Inhibition of Cathepsin C in C57BL/6 mouse Bone marrow cells assessed as reduction of NSPs stability by measuring stability of protease 3 at 1 uM treated for 48 hrs by Western blotting analysis; type: cell-based; design: scale not given: the % may be the effect or the level left; conditions: Bone marrow cell
[20] = biological target: T2, Dipeptidyl peptidase 1 (Mus musculus); test: Inhibition of Cathepsin C in C57BL/6 mouse Bone marrow cells assessed as reduction of NSPs stability by measuring stability of neutrophil elastase at 1 uM treated for 6 hrs by Western blotting analysis; type: cell-based; design: scale not given: the % may be the effect or the level left; conditions: Bone marrow cell
[21] = test system: Mus musculus; test: In vivo inhibition of cathepsin C in po dosed LPS-induced ALI C57BL/6 mouse model assessed as downregulation of neutrophil elastase activity in blood treated 1 hr prior to LPS challenge and measured after 48 hrs; type: functional, organism-based; conditions: dose 2-50 mg/kg, time 49.0 hrs, DDE = dose-dependent effect
[22] = biological target: T2, Dipeptidyl peptidase 1 (Mus musculus); test: Inhibition of Cathepsin C in C57BL/6 mouse Bone marrow cells assessed as reduction of NSPs stability by measuring stability of cathepsin G at 1 uM treated for 12 hrs by Western blotting analysis; type: cell-based; design: scale not given: the % may be the effect or the level left; conditions: Bone marrow cell
[23] = Half life in Sprague-Dawley rat at 10 mg/kg, po measured for 24 hrs by LC-MS/MS analysis; type: ADME, organism-based; conditions: in vivo
[24] = biological target: T2, Dipeptidyl peptidase 1 (Mus musculus); test: Inhibition of Cathepsin C in C57BL/6 mouse Bone marrow cells assessed as reduction of NSPs stability by measuring stability of Cat G at 1 uM treated for 6 hrs by Western blotting analysis; type: cell-based; design: scale not given: the % may be the effect or the level left; conditions: Bone marrow cell
[25] = biological target: T2, Dipeptidyl peptidase 1 (Mus musculus); test: Inhibition of Cathepsin C in C57BL/6 mouse Bone marrow cells assessed as reduction of NSPs stability by measuring stability of protease 3 at 1 uM treated for 6 hrs by Western blotting analysis; type: cell-based; design: scale not given: the % may be the effect or the level left; conditions: Bone marrow cell
[26] = biological target: Cathepsin B (Homo sapiens, UniProt P07858); test: Inhibition of human recombinant Cathepsin B using Z-Leu-Arg-AMC as substrate pretreated for 60 mins followed by substrate addition and incubated for 30 mins by microplate reader assay
[27] = biological target: T1, Dipeptidyl peptidase 1; test: Inhibition of Cathepsin C in human U-937 cells using H-Gly-Phe-AFC as substrate pretreated for 1 hr followed by substrate addition and incubated for 60 mins by microplate reader assay; type: cell-based
[28] = test system: Mus musculus; test: In vivo inhibition of cathepsin C in po dosed LPS-induced ALI C57BL/6 mouse model assessed as downregulation of Cat G activity in blood treated 1 hr prior to LPS challenge and measured after 48 hrs; type: functional, organism-based; conditions: dose 2-50 mg/kg, time 49.0 hrs, DDE = dose-dependent effect
[29] = Acute toxicity in ICR mouse assessed as pathological changes of liver at 1500 mg/kg, po administered as single dose measured after 7 days by H and E staining based assay; type: organism-based; conditions: in vivo, time 7 day

T1 sequence (P53634 25-134 limits assumed): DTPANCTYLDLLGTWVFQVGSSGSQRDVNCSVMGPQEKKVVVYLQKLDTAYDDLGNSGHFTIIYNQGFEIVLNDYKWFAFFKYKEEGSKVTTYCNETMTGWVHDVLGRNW
T1 sequence (P53634 231-394 limits assumed): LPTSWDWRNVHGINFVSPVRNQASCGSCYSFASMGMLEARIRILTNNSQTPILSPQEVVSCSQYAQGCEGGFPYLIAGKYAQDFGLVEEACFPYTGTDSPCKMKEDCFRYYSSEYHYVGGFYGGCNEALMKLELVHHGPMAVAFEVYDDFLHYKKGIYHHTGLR
T1 sequence (P53634 395-463 limits assumed): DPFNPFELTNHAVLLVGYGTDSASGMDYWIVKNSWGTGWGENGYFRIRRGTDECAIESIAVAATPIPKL

Q: Which results are given for `CC(=O)Nc1cccc(Nc2nc(Nc3ccc(-c4ccsc4)cn3)ncc2Cl)c1`?
A: Activity [1]: Non-Toxic; Activity [2]: Active; Activity [3]: Non-Toxic; inhibition [4]: Dde; AUC(0-t) at 24 h [5]: 511 ng·h/mL; pIC50 [6]: 7.22; Activity [7]: Dde; Activity [8]: Active; Tmax [9]: 0.77 h; Activity [10]: 78.4%; Activity [11]: Non-Toxic; pIC50 [12]: 6.94; Activity [13]: Active; Activity [14]: Non-Toxic; Activity [15]: 50.1%; half-life [16]: 2.5 h; AUC [17]: 473.18 ng·h/mL; inhibition [18]: Dde; Activity [19]: 46.8%; Activity [20]: 93.5%; inhibition [21]: Dde; Activity [22]: 81.1%; half-life [23]: 1.79 h; Activity [24]: 93.4%; Activity [25]: 95.6%; pIC50 [26]: < 5.30; pIC50 [27]: 7.15; inhibition [28]: Dde; Activity [29]: Non-Toxic

Reference: ChEMBL document CHEMBL5154871, “Non-peptidyl non-covalent cathepsin C inhibitoEEr bearing a unique thiophene-substituted pyridine: Design, structure-activity relationship and anti-inflammatory activity in vivo” (Eur J Med Chem, 2022)
